Measured values from patent EP3290412A1, “HIV-1 NUCLEOCAPSID INHIBITORS” (Università degli Studi di Siena, priority 2016, dated 2018).
Like-named read-outs stand apart in the source and are kept apart here.

Tests used:
[1] = test system: Peripheral blood mononuclear cells (PBMC); format: cell-based; settings: human, 7 days
Summary of the method: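 Healthy-donor PBMC stimulated 2 days with 5 µg/mL PHA, then seeded at 1x10^5 cells/well in medium with 20 IU/mL IL-2 and exposed to compound for 7 days. Viability measured by MTS (4 h, OD 490 nm). TD50 interpolated from dose versus percent mortality relative to untreated cells.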

[2] = target: T1, full length (1-55) HIV-1 NCp7 (Human immunodeficiency virus type 1 group M subtype B, UniProt P12493); assay: Electromobility Shift Assay (EMSA), competition for ssDNA binding; settings: NCp7 300 nM, M13mp18 ssDNA; positive = >25% inhibition at 100µM
T1 construct: recombinant full length (1-55) HIV-1 NCp7 proteins; made in house
Summary of the method: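 Recombinant NL4-3 NCp7 (300 nM in the pre-mix) was combined with compound in 20 mM Tris-HCl pH 7.4, 2 mM MgCl2, 100 mM NaCl, 1 mM DTT, then M13mp18 ssDNA was added for 25 min at 37 °C. Complexes were run on 1% agarose/0.5x TBE and stained with SybrGold. IC50 is the concentration at which bound ssDNA migrated 50% of the bound–unbound distance (triplicate).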

HeLa cells = assay: HeLa Proliferation assay (CellTiter Glo); format: cell-based; settings: 72 hours
Summary of the method: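 HeLa cells in phenol red-free DMEM + 10% FBS plated at 2000 cells/well, recovered 4 h, then exposed to compounds for 72 h at 37 °C, 5% CO2. Viability read by CellTiter Glo luminescence.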

[3] = test system: HIV-1 reference strain NL4-3; assay: MonoCycle assay (TZM-bl cells); format: cell-based
Summary of the method: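 TZM-bl cells (20,000/well) were infected with NL4-3 in the presence of five-fold serial inhibitor dilutions. After 48 h, cells were lysed and luciferase luminescence (RLU) was counted. IC50 was derived from the RLU data.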

[4] = Human immunodeficiency virus 1, NL43, TZM-bl, 48 h, read-out: Mono Cycle IC50 nM
[5] = Human immunodeficiency virus 1, NL43, TZM-bl cells, NL4-3, 48 hours, read-out: Mono Cycle IC50

SMILES | Proliferation assay PBMC TD50 [1] | EMSA screening results [2] | Proliferation assay HELA TD50 (HeLa cells) | IC50 [3, 4] | IC50 [3, 5]
CCNCc1ccc(-c2nc(O)c(O)c(C(=O)N[C@H](C)C3CCCCC3)n2)nc1 [Compound 60, (R)-N-(1-cyclohexylethyl)-2-(5-((ethylamino)methyl)pyridin-2-yl)-5,6-dihydroxypyrimidine-4-carboxamide] | 1600 nM | Negative | 6.4286 µM | > 50000 nM | –
O=C(NCC1CCCCC1)c1nc(-c2ccccn2)nc(O)c1O [Compound 1, N-(cyclohexylmethyl)-5,6-dihydroxy-2-(pyridin-2-yl)pyrimidine-4-carboxamide] | 2600 nM | Positive (A compound showing >25% inhibition when tested at 100µM concentration is considered as "positive") | 3.5857 µM | > 50000 nM | –
O=C(OCC1CCCCC1)c1nc(-c2ncccc2Cl)nc(O)c1O [Compound 15, cyclohexylmethyl 2-(3-chloropyridin-2-yl)-5,6-dihydroxypyrimidine-4-carboxylate] | 25000 nM | Positive (A compound showing >25% inhibition when tested at 100µM concentration is considered as "positive") | >50 µM | – | > 50000 nM
CCNS(=O)(=O)c1ccc(-c2nc(O)c(O)c(C(=O)N[C@H](C)C3CCCCC3)n2)nc1 [Compound 89, (R)-N-(1-cyclohexylethyl)-2-(5-(N-ethylsulfamoyl)pyridin-2-yl)-5,6-dihydroxypyrimidine-4-carboxamide] | 3290 nM | Negative | 12.629 µM | > 50000 nM | –
C[C@@H](NC(=O)c1nc(-c2ccc(NC(=O)OC(C)(C)C)cn2)nc(O)c1O)C1CCCCC1 [Compound 61, tert-butyl (R)-(6-(4-((1-cyclohexylethyl)carbamoyl)-5,6-dihydroxypyrimidin-2-yl)pyridin-3-yl)carbamate] | 2400 nM | Positive (A compound showing >25% inhibition when tested at 100µM concentration is considered as "positive") | 2.0358 µM | 7180 nM | –
O=C(NC1(C2CCCCC2)CC1)c1nc(-c2ccccn2)nc(O)c1O [Compound 24, N-(1-cyclohexylcyclopropyl)-5,6-dihydroxy-2-(pyridin-2-yl)pyrimidine-4-carboxamide] | 2600 nM | Positive (A compound showing >25% inhibition when tested at 100µM concentration is considered as "positive") | 1.5131 µM | 3610 nM | –
O=C(OCCCC1CCCCC1)c1nc(-c2ccccn2)nc(O)c1O [Compound 14, 3-cyclohexylpropyl 5,6-dihydroxy-2-(pyridin-2-yl)pyrimidine-4-carboxylate] | 5600 nM | Negative | >50 µM | > 50000 nM | –
O=C(NCC1CC1)c1nc(-c2ccccn2)nc(O)c1O [Compound 3, N-(cyclopropylmethyl)-5,6-dihydroxy-2-(pyridin-2-yl)pyrimidine-4-carboxamide] | 6000 nM | Negative | >50 µM | 27400 nM | –
CC(C)(CNC(=O)c1nc(-c2ccccn2)nc(O)c1O)C1CCCC1 [Compound 63, N-(2-cyclopentyl-2-methylpropyl)-5,6-dihydroxy-2-(pyridin-2-yl)pyrimidine-4-carboxamide] | 2100 nM | Positive (A compound showing >25% inhibition when tested at 100µM concentration is considered as "positive") | 0.3986 µM | 11800 nM | –
C[C@@H](NC(=O)c1nc(-c2cc(CCN)ccn2)nc(O)c1O)C1CCCCC1 [Compound 88, (R)-2-(4-(2-aminoethyl)pyridin-2-yl)-N-(1-cyclohexylethyl)-5,6-dihydroxypyrimidine-4-carboxamide] | 3250 nM | Positive (A compound showing >25% inhibition when tested at 100µM concentration is considered as "positive") | 7.1338 µM | > 50000 nM | –
C[C@H](CC1CCCCC1)NC(=O)c1nc(-c2ccccn2)nc(O)c1O [Compound 64, (R)-N-(1-cyclohexylpropan-2-yl)-5,6-dihydroxy-2-(pyridin-2-yl)pyrimidine-4-carboxamide] | 2500 nM | Positive (A compound showing >25% inhibition when tested at 100µM concentration is considered as "positive") | 0.4717 µM | 23700 nM | –
O=C(NCC1CCCCC1)c1nc(-c2ncccc2Cl)nc(O)c1O [Compound 16, 2-(3-chloropyridin-2-yl)-N-(cyclohexylmethyl)-5,6-dihydroxypyrimidine-4-carboxamide] | 5700 nM | Positive (A compound showing >25% inhibition when tested at 100µM concentration is considered as "positive") | 16.609 µM | – | 51100 nM
C[C@H](NC(=O)c1nc(-c2ccccn2)nc(O)c1O)C1CCCCC1 [Compound 38, (S)-N-(1-cyclohexylethyl)-5,6-dihydroxy-2-(pyridin-2-yl)pyrimidine-4-carboxamide] | 2450 nM | Positive (A compound showing >25% inhibition when tested at 100µM concentration is considered as "positive") | 0.5782 µM | 11200 nM | –
C[C@@H](NC(=O)c1nc(-c2cc(CCNCc3cccn3C)ccn2)nc(O)c1O)C1CCCCC1 [Compound 91, (R)-N-(1-cyclohexylethyl)-5,6-dihydroxy-2-(4-(2-(((1-methyl-1H-pyrrol-2-yl)methyl)amino)ethyl)pyridin-2-yl)pyrimidine-4-carboxamide] | 1090 nM | Positive (A compound showing >25% inhibition when tested at 100µM concentration is considered as "positive") | 1.1604 µM | 2150 nM | –
C[C@@H](NC(=O)c1nc(-c2cc(OCc3ccccc3)ccn2)nc(O)c1O)C1CCCCC1 [Compound 35, (R)-2-(4-(benzyloxy)pyridin-2-yl)-N-(1-cyclohexylethyl)-5,6-dihydroxypyrimidine-4-carboxamide] | 670 nM | Positive (A compound showing >25% inhibition when tested at 100µM concentration is considered as "positive") | 4.5896 µM | – | > 50000 nM
Cc1ccnc(-c2nc(O)c(O)c(C(=O)N[C@@H](C)C3CCCCC3)n2)c1 [Compound 79, (S)-N-(1-cyclohexylethyl)-5,6-dihydroxy-2-(4-methylpyridin-2-yl)pyrimidine-4-carboxamide] | 2300 nM | Positive (A compound showing >25% inhibition when tested at 100µM concentration is considered as "positive") | 1.7233 µM | 2350 nM | –
O=C(OCCC1CCCCC1)c1nc(-c2ccccn2)nc(O)c1O [Compound 12, 2-cyclohexylethyl 5,6-dihydroxy-2-(pyridin-2-yl)pyrimidine-4-carboxylate] | 4000 nM | Negative | >50 µM | > 50000 nM | –
C[C@H](NC(=O)c1nc(-c2nccc3ccccc23)nc(O)c1O)C1CCCCC1 [Compound 80, (S)-N-(1-cyclohexylethyl)-5,6-dihydroxy-2-(isoquinolin-1-yl)pyrimidine-4-carboxamide] | 2000 nM | Positive (A compound showing >25% inhibition when tested at 100µM concentration is considered as "positive") | 1.6112 µM | 2850 nM | –
Cc1cccc(-c2nc(O)c(O)c(C(=O)N[C@H](C)C3CCCCC3)n2)n1 [Compound 18, (R)-N-(1-cyclohexylethyl)-5,6-dihydroxy-2-(6-methylpyridin-2-yl)pyrimidine-4-carboxamide] | 2400 nM | Positive (A compound showing >25% inhibition when tested at 100µM concentration is considered as "positive") | 4.6302 µM | 37300 nM | –
C[C@@H](NC(=O)c1nc(-c2cc(N3CCN(C)CC3)ccn2)nc(O)c1O)C1CCCCC1 [Compound 76, (R)-N-(1-cyclohexylethyl)-5,6-dihydroxy-2-(4-(4-methylpiperazin-1-yl)pyridin-2-yl)pyrimidine-4-carboxamide] | 2500 nM | Positive (A compound showing >25% inhibition when tested at 100µM concentration is considered as "positive") | 3.6831 µM | 18300 nM | –
